Results on one compound are retold here after US7988776B2, “Coloring composition, thermal transfer recording ink sheet, thermal transfer recording method, color toner, inkjet ink, color filter, and azo dye” (Fujifilm Corporation, priority 2007, dated 2011).

Format in all cases: physicochemical
Data set [1] in a line: Absorption spectrometry in ethyl acetate solution (maximum absorption wavelength). Particulars: concentration 1×10^−6 mol/L, optical path length 10 mm. As for the experimental part: The thus-obtained compounds (1), (2), (5) and (10) were analyzed absorption spectrometry in an ethyl acetate solution (concentration: 1×10^−6 mol/L, optical path length: 10 mm).
A short description of data set [2]: Light fastness of recorded images under Xe light. To be noted: retention of status A reflection density 1.0 after Xe light (17000 lux) for 7 days. As for the experimental part:
Next, the recorded samples were exposed to an Xe light (17000 lux) for 7 days, and tested for the light stability (light fastness) of the recorded images. After the exposure, the status A reflection density of the part of each sample having an original status A reflection density of 1.0 before the exposure was measured, and the retention (by percentage) to the reflection density of 1.0 after exposure to that before exposure indicates the image stability. With the retention percentage, the samples were ranked in three, A (from 80% to less than 100%), B (from 60% to less than 80%), C (less than 60%).

Data set [3] in a line: Dye solubility in ink sheet construction. Further details: key: A (easily soluble); B (soluble); C (difficult to dissolve, but soluble). Particulars: dye-donating layer-forming coating composition, methyl ethyl ketone/toluene (1/1). The text has this:
A polyester film (Lumirror, trade name by Toray) having a thickness of 6.0 μm and processed for heat-resistant lubrication with a thermosetting acrylic resin (thickness 1 μm) on its back was used as a support.
The dye solubility was ranked in three, A (easily soluble), B (soluble) r C (difficult to dissolve, but soluble).

Turning to `C=CCN(CC=C)c1ccc(/N=N/c2c(C#N)c(C(C)(C)C)nn2S(C)(=O)=O)c(NC(C)=O)c1` [(5)], the “Maximum Absorption Wavelength” value in data set [1] is given as 539 nm. Moreover, the “Light Fastness” value in data set [2] is listed as “A (A (from 80% to less than 100%))”. The Solubility result in data set [3] was “A”.
